Patent publication EP0584085B1, “ANTIBIOTIC CARBAPENEM DERIVATIVES” (ZENECA LIMITED, priority 1991, dated 1992)
≈ marks a conversion by molar mass, not a printed value.

Columns and labels:
Test in all cases: MIC by agar-dilution, Diagnostic Sensitivity Test agar
Assay type in all cases: cell-based
St.aureus 147N (601052) = conditions: Staphylococcus aureus, inoculum 10^4 CFU/spot
Excerpt: (§1) The following results were obtained for representative compounds on a standard in vitro test system using Diagnostic Sensitivity Test agar medium. The antibacterial activity is described in terms of the minimum inhibitory concentration (MIC) determined by the agar-dilution technique with an inoculum size of 10^4 CFU/spot.

Strep.pyogenes (681018) = conditions: Streptococcus pyogenes, inoculum 10^4 CFU/spot
Excerpt: as §1

[1] = test system: B. fragilis AMP R (542008); conditions: Bacteroides fragilis, inoculum 10^4 CFU/spot
Excerpt: as §1

[2] = test system: P.aeruginosa PU21 (101028); conditions: Pseudomonas aeruginosa, inoculum 10^4 CFU/spot
Excerpt: as §1

[3] = test system: P. aeruginosa 18S (101024); conditions: Pseudomonas aeruginosa, inoculum 10^4 CFU/spot
Excerpt: as §1

Serr.marcesens (421003) = conditions: inoculum 10^4 CFU/spot
Excerpt: as §1

[4] = test system: Ent.cloacae P99^- (401054); conditions: Enterobacter cloacae
Excerpt: as §1

E.coli DCO (341098) = conditions: Escherichia coli, inoculum 10^4 CFU/spot
Excerpt: as §1

Pr.morganii (433001) = conditions: Morganella morganii, inoculum 10^4 CFU/spot
Excerpt: as §1

S.dublin (369001) = conditions: Salmonella enterica, inoculum 10^4 CFU/spot
Excerpt: as §1

## C[C@@H](O)[C@H]1C(=O)N2C(C(=O)O)=C(S[C@@H]3CN[C@H](C(=O)Nc4cc(O)c(O)c(C#N)c4)C3)[C@H](C)[C@H]12 [Example 2, (1R,5S,6S,8R,2'S,4'S)-2-(2-(5-Cyano-3,4-dihydroxyphenylcarbamoyl)pyrrolidin-4-ylthio)-6-(1-hydroxyethyl)-1-methyl-carbapenem-3-carboxylic acid]
St.aureus 147N (601052)
  MIC: 0.25 µg/mL (≈ 0.512 µM)
Strep.pyogenes (681018)
  MIC: 0.008 µg/mL (≈ 0.0164 µM)
[1]
  MIC: 0.25 µg/mL (≈ 0.512 µM)
[2]
  MIC: 0.25 µg/mL (≈ 0.512 µM)
[3]
  MIC: 0.06 µg/mL (≈ 0.123 µM)
Serr.marcesens (421003)
  MIC: 0.125 µg/mL (≈ 0.256 µM)
[4]
  MIC: 0.015 µg/mL (≈ 0.0307 µM)
E.coli DCO (341098)
  MIC: 0.015 µg/mL (≈ 0.0307 µM)
Pr.morganii (433001)
  MIC: 0.125 µg/mL (≈ 0.256 µM)
S.dublin (369001)
  MIC: 0.008 µg/mL (≈ 0.0164 µM)
